How the values were obtained:
Human HDAC10 = target: T1, Human HDAC10 (Homo sapiens, UniProt Q969S8); assay: HDAC10 biochemical assay, AMC-labeled peptide substrate; settings: read-out: HDAC Isoform IC50 (nM) 10
T1 construct: Human HDAC10 (a.a. 1-481); GST (N); His (C); host or cells: baculovirus expression system
T1 sequence (Q969S8 1-481): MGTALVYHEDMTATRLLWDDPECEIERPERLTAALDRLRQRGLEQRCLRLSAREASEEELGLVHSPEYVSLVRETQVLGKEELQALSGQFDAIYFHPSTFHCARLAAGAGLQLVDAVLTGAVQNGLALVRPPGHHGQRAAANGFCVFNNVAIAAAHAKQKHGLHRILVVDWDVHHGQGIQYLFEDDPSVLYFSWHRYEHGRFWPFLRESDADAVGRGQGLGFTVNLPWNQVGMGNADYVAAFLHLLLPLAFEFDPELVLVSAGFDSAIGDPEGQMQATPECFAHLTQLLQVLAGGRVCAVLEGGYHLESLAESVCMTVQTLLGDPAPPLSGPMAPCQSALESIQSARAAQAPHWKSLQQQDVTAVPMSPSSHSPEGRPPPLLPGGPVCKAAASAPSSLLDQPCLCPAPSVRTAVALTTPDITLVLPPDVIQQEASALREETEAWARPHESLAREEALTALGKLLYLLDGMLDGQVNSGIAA
Description: (§1) Activity against all zinc-dependent HDACs 1 to 11 was assessed by using an acetylated AMC-labeled peptide substrate. The substrate RHKK(Ac)AMC was used for HDAC1, HDAC2, HDAC3, HDAC6 and HDAC10; the substrate used for HDAC8 was RHK(Ac)K(Ac)AMC. Activity against the class IIa HDACs (HDAC4, 5, 7, 9) and HDAC11 was determined using a class IIa-specific substrate, BOC-Lys(trifluoroacetyl)-AMC (“Trifluoroacetyl Lysine”; see Lahm et al, 2007, PNAS, 104, 17335-17340). All assays were based on the AMC-labeled substrate and developer combination.
(§2) The protocol involved a two-step reaction: first, the substrate with the acetylated lysine side chain is incubated with a sample containing HDAC activity, to produce the deacetylated products, which are then digested in the second step by the addition of developer to produce the fluorescent signal proportional to the amount of deacetylated substrates.
Human HDAC10 (a.a. 1-481), GenBank Accession No. NM_032019 with N-terminal GST tag and C-terminal His tag, MW=78 kDa, expressed in baculovirus expression system.
(§3) Assay Buffer: 50 mM Tris-HCl, pH8.0, 137 mM NaCl, 2.7 mM KCl, 1 mM MgC2. Before use, 1 mg/mL BSA and DMSO are added.
HDAC10: 12 ng/ul HDAC10 and 50 μM HDAC substrate are in the reaction buffer with 1% DMSO final. Incubate for 2 hours at 30° C.
(§4) Stage 1: Deacetylation of substrate by incubation of HDAC enzymes with compounds
(§5) Stage 2: Development by addition of Developer to digest the deacetylated substrate, and generate the fluorescent colour; Detection: 360/460 Ex/Em

Human HDAC7 = target: T2, Human HDAC7 (Homo sapiens, UniProt Q8WUI4); assay: HDAC7 biochemical assay, class IIa-specific substrate; settings: read-out: HDAC Isoform IC50 (nM) 7
T2 construct: (a.a. 518-end) with N-terminal GST tag; GST (N); host or cells: baculovirus expression system
T2 sequence (Q8WUI4 518-952 limits assumed): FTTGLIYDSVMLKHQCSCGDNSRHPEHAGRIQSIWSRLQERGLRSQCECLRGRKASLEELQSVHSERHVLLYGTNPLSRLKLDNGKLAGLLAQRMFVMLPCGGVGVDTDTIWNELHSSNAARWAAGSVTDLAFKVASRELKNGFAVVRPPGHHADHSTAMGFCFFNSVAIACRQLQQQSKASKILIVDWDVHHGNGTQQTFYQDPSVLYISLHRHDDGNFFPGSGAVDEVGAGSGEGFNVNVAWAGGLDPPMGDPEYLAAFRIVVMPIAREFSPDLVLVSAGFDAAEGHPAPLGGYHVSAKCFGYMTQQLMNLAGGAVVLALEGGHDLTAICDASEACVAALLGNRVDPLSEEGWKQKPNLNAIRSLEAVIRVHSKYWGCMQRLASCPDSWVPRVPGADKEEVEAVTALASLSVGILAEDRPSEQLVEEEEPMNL
How it was run: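 GST-tagged HDAC7 (a.a. 518-end, baculovirus-expressed) at 0.001 ng/ul with 50 μM Boc-Lys(trifluoroacetyl)-AMC substrate, 30 min at room temperature in pH 8.0 Tris buffer with BSA, 1% DMSO final. Developer then releases AMC; fluorescence read at 360/460 nm.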

Human HDAC2 = target: T3, Human HDAC2 (Homo sapiens, UniProt Q92769); assay: HDAC2 biochemical assay, AMC-labeled peptide substrate; settings: read-out: HDAC Isoform IC50 (nM) 2
T3 construct: full length with C-terminal GST-tag; GST (C); host or cells: baculovirus expression system
Description: as §1, §2
Human HDAC2 (GenBank Accession No. NM_001527), full length with C-terminal GST-tag, MW=82.9 kDa, expressed inbaculovirus expression system.
as §3
HDAC2: 0.07 ng/ul HDAC2 and 50 μM HDAC substrate are in the reaction buffer with 1% DMSO final. Incubate for 1 hour at 30° C.
as §4, §5

Human HDAC9 = target: T4, Human HDAC9 (Homo sapiens, UniProt Q9UKV0); assay: HDAC9 biochemical assay, class IIa-specific substrate; settings: read-out: HDAC Isoform IC50 (nM) 9
T4 construct: amino acids 604-1066 with C-terminal His tag; His (C); host or cells: baculovirus expression system
How it was run: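 HDAC9 residues 604-1066 (C-terminal His tag, baculovirus-expressed) at 0.06 ng/ul with 50 μM class IIa substrate Boc-Lys(trifluoroacetyl)-AMC in Tris-HCl pH 8.0 buffer with BSA and 1% DMSO. 30 min at room temperature, then developer added; fluorescence read at 360/460 nm Ex/Em.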

Human HDAC1 = target: T5, Human HDAC1 (Homo sapiens, UniProt Q13547); assay: HDAC1 biochemical assay, AMC-labeled peptide substrate; settings: read-out: HDAC Isoform IC50 (nM) 1
T5 construct: full length with C-terminal His-tag and C-terminal FLAG-tag; His (C); FLAG (C); host or cells: baculovirus expression system
How it was run: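 Baculovirus-expressed full-length human HDAC1 with His and FLAG tags, 0.3 ng/ul, incubated 1 h at 30° C with compound and 50 μM RHKK(Ac)AMC in Tris pH 8.0 buffer with BSA and 1% DMSO. Developer then releases AMC from deacetylated substrate; fluorescence read at 360/460 nm.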

T3 sequence (Q92769 whole entry, canonical isoform): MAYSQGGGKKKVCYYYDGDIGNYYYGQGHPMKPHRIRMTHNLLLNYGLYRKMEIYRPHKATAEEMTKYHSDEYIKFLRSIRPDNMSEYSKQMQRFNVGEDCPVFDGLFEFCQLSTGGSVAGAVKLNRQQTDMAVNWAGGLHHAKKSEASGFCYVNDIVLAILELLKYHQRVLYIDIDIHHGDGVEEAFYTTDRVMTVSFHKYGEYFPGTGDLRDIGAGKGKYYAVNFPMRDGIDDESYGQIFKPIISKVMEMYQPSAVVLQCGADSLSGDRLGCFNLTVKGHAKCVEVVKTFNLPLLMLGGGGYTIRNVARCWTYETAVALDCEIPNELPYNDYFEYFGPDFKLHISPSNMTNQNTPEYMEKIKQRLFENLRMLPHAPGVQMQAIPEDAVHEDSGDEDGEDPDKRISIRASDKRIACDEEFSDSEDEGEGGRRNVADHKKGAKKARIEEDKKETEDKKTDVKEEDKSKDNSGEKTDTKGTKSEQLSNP
T5 sequence (Q13547 whole entry, canonical isoform): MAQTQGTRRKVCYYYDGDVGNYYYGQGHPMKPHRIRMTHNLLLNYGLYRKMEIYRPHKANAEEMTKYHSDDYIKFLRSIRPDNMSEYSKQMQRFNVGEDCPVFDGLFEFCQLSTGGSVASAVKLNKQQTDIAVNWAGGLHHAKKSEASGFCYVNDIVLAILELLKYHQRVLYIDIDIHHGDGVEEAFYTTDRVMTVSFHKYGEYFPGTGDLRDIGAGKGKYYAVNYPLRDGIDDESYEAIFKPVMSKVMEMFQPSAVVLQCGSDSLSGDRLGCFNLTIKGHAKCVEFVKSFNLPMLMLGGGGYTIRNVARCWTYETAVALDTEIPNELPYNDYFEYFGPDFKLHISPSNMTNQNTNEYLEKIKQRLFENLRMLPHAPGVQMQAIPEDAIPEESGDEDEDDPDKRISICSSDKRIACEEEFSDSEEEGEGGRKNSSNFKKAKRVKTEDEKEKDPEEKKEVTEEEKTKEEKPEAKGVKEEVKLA
T4 sequence (Q9UKV0 604-1066 isoform Q9UKV0-5): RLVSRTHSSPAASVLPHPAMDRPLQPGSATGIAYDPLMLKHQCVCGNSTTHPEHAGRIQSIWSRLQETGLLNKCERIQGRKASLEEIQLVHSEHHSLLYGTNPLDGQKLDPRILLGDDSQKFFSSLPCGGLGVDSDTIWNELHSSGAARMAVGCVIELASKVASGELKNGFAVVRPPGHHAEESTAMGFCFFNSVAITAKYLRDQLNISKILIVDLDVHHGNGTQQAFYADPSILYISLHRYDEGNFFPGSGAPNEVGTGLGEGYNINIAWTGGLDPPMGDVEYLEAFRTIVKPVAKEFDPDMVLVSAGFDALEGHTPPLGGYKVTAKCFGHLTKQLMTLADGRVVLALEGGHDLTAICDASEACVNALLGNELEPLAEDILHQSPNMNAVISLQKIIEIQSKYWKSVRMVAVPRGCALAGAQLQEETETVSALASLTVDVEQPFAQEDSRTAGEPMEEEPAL

SMILES | IC50 (Human HDAC10) [nM] | IC50 (Human HDAC7) [nM] | IC50 (Human HDAC2) [nM] | IC50 (Human HDAC9) [nM] | IC50 (Human HDAC1) [nM]
COC1(C(F)(F)F)CN(C(=O)c2cnnc(N(Cc3ccc(-c4noc(C(F)(F)F)n4)s3)c3cnccn3)c2)C1 [Example GL, 5-[3-Methoxy-3-(trifluoromethyl)azetidine-1-carbonyl]-N-(pyrazin-2-yl)-N-({5-[5-(trifluoromethyl)-1,2,4-oxadiazol-3-yl]thiophen-2-yl}methyl)pyridazin-3-amine] | > 10000 | ≤ 10000 | > 10000 | ≤ 10000 | ≤ 10000
FC(F)(F)c1nc(-c2ccc(CN(c3cnccn3)c3cc(N4CCCC4)cnn3)s2)no1 [Example FQ, N-(Pyrazin-2-yl)-5-(pyrrolidin-1-yl)-N-({5-[5-(trifluoromethyl)-1,2,4-oxadiazol-3-yl]thiophen-2-yl}methyl)pyridazin-3-amine] | > 10000 | ≤ 10000 | > 10000 | ≤ 10000 | > 10000
Fc1ccnc(N(Cc2ccc(-c3noc(C(F)(F)F)n3)s2)c2cnccn2)c1 [Example AG, N-(4-Fluoropyridin-2-yl)-N-({5-[5-(trifluoromethyl)-1,2,4-oxadiazol-3-yl]thiophen-2-yl}methyl)pyrazin-2-amine] | > 10000 | ≤ 10000 | > 10000 | ≤ 10000 | > 10000
CC(C)OC1CN(C(=O)c2cnnc(N(Cc3ccc(-c4noc(C(F)(F)F)n4)s3)c3cnccn3)c2)C1 [Example GC, 5-[3-(Propan-2-yloxy)azetidine-1-carbonyl]-N-(pyrazin-2-yl)-N-({5-[5-(trifluoromethyl)-1,2,4-oxadiazol-3-yl]thiophen-2-yl}methyl)pyridazin-3-amine] | > 10000 | ≤ 500 | > 10000 | ≤ 10000 | > 10000
FC(F)(F)c1cnnc(N(Cc2ccc(-c3noc(C(F)(F)F)n3)s2)c2cnccn2)c1 [Example EF, N-(Pyrazin-2-yl)-5-(trifluoromethyl)-N-({5-[5-(trifluoromethyl)-1,2,4-oxadiazol-3-yl]thiophen-2-yl}methyl)pyridazin-3-amine] | > 10000 | ≤ 10000 | > 10000 | ≤ 10000 | > 10000

The next lines start with the values.

IC50 (Human HDAC10) [nM] | IC50 (Human HDAC7) [nM] | IC50 (Human HDAC2) [nM] | IC50 (Human HDAC9) [nM] | IC50 (Human HDAC1) [nM] | SMILES
> 10000 | ≤ 500 | > 10000 | ≤ 1000 | > 10000 | Nc1cnnc(N(Cc2ccc(-c3noc(C(F)(F)F)n3)s2)c2cnccn2)c1 [Example FL, N3-(Pyrazin-2-yl)-N3-({5-[5-(trifluoromethyl)-1,2,4-oxadiazol-3-yl]thiophen-2-yl}methyl)pyridazine-3,5-diamine]
> 10000 | ≤ 10000 | > 10000 | ≤ 10000 | > 10000 | COc1cncc(N(Cc2ccc(-c3noc(C(F)(F)F)n3)s2)c2cnccn2)n1 [Example BQ, 6-Methoxy-N-(pyrazin-2-yl)-N-({5-[5-(trifluoromethyl)-1,2,4-oxadiazol-3-yl]thiophen-2-yl}methyl)pyrazin-2-amine]
> 10000 | ≤ 1000 | > 10000 | ≤ 10000 | > 10000 | Cc1cnnc(N(Cc2ccc(-c3noc(C(F)(F)F)n3)s2)c2cnccn2)c1 [Example GN, 5-Methyl-N-(pyrazin-2-yl)-N-({5-[5-(trifluoromethyl)-1,2,4-oxadiazol-3-yl]thiophen-2-yl}methyl)pyridazin-3-amine]
> 10000 | ≤ 500 | > 10000 | ≤ 10000 | > 10000 | COc1cnc(N(Cc2ccc(-c3noc(C(F)(F)F)n3)s2)c2cnccn2)cn1 [Example BI, 5-Methoxy-N-(pyrazin-2-yl)-N-({5-[5-(trifluoromethyl)-1,2,4-oxadiazol-3-yl]thiophen-2-yl}methyl)pyrazin-2-amine]
